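Growth conditions: 96-well plates. Treatment: test compound, 48 hours, 5 concentrations. Analysis: linear interpolation between bracketing concentrations; unreached endpoints set to highest concentration. TGI marks complete inhibition of growth.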
Tests used:
Assay in all cases: inhibition of tumour cell growth, NCI panel, 48 h
A549 NSCLC = test system: A549 NSCLC
ACHN renal = test system: ACHN renal
COLO 205 colon = test system: COLO 205 colon
HT29 colon = test system: HT29 colon
LOX IMVI melanoma = test system: LOX IMVI melanoma
MOLT-4 leukemia = test system: MOLT-4 leukemia
PC-3 prostate = test system: PC-3 prostate
RPMI-8226 leukemia = test system: RPMI-8226 leukemia
SF-539 CNS = test system: SF-539 CNS
SK-MEL-5 melanoma = test system: SK-MEL-5 melanoma
UACC-62 melanoma = test system: UACC-62 melanoma

Structure (SMILES)	TGI (A549 NSCLC)	TGI (ACHN renal)	TGI (COLO 205 colon)	TGI (HT29 colon)	TGI (LOX IMVI melanoma)	TGI (MOLT-4 leukemia)	TGI (PC-3 prostate)	TGI (RPMI-8226 leukemia)	TGI (SF-539 CNS)	TGI (SK-MEL-5 melanoma)	TGI (UACC-62 melanoma)
COc1ccc(NC2CC(C)N(C(=O)c3ccccc3)O2)cc1 (configuration not stated)	> 10 µM	> 10 µM	> 10 µM	> 10 µM	> 10 µM	> 10 µM	> 10 µM	> 10 µM	> 10 µM	> 10 µM	
CC1=NN=C(N)NC1=CC(Sc1ccc(Cl)cc1)c1c(O)ccc2ccccc12 (configuration not stated)	> 92.9 µM	28.1 µM	36.8 µM	48.4 µM	> 65.2 µM	> 84.9 µM	53.4 µM	> 100 µM		21.2 µM	25.9 µM
CC(C)(C)S(=O)OC12CC3CC(CC(C3)C1)C2 (configuration not stated)	> 100 µM	> 100 µM	> 100 µM	> 100 µM	> 100 µM	> 100 µM		> 100 µM	> 100 µM	> 100 µM	> 100 µM
CC(=O)C1=CCC2c3[nH]c4ccccc4c3CCN2C1 (configuration not stated)	> 100 µM	> 100 µM	> 100 µM	> 100 µM	> 100 µM	> 100 µM			> 100 µM	> 100 µM	
CC(=O)OCC(Br)C1(C)CCC(C(C)(C)Br)O1 (configuration not stated)	> 100 µM	> 100 µM	> 100 µM	> 100 µM	> 100 µM	> 100 µM	> 100 µM	> 100 µM	> 100 µM	> 100 µM	
COc1ccc2c(c1)CCC(OS(=O)(=O)CC13CCC(CC1=O)C3(C)C)C2=O (configuration not stated)	78 µM	> 100 µM	91.9 µM		32.1 µM	55.9 µM		57.2 µM	41.6 µM	39.2 µM	34.8 µM
Cc1ncc([N+](=O)[O-])n1CCNC(=O)Cn1c([N+](=O)[O-])cnc1C	> 100 µM	> 100 µM	> 100 µM	> 100 µM		> 100 µM	> 100 µM		> 100 µM	> 100 µM	> 100 µM
c1ccc2cc3c(cc2c1)nc1ccccn13	> 100 µM	> 100 µM	> 100 µM			> 100 µM	> 100 µM	> 100 µM	> 100 µM	> 100 µM	> 100 µM
O=C1NC2(CCN(CCCC3(c4ccc(F)cc4)OCCO3)CC2)Oc2ccccc21	> 100 µM	> 100 µM	> 100 µM	> 100 µM	> 100 µM	> 100 µM		> 100 µM	> 100 µM	> 100 µM	> 100 µM
CCOC(OC1=C(C#N)CCCC1)C(C)[Se]c1ccccc1 (configuration not stated)	> 100 µM	> 100 µM	> 100 µM	> 100 µM	30.5 µM	79.9 µM		84 µM	38 µM	55.6 µM	63.2 µM
Cc1cccc2c(=O)c3cccc([C@@H](C)C(=O)O)c3oc12	> 100 µM	> 100 µM	> 100 µM	> 100 µM	> 100 µM	> 100 µM	> 100 µM	> 100 µM	> 100 µM	> 100 µM	
S=c1[nH]nc(NNc2ccccc2)n1Nc1ccccc1	> 100 µM	> 100 µM	> 37.6 µM	> 100 µM	32.5 µM		> 100 µM	> 100 µM	> 73.6 µM	> 100 µM	> 100 µM
O=C1c2ccccc2-c2c1c(-c1cccc(Br)c1)nc1ccc3ccccc3c21	> 100 µM	> 100 µM	> 100 µM	> 100 µM	> 100 µM	> 100 µM	> 100 µM	> 100 µM	> 100 µM		> 100 µM
COc1ccc(CCNC(=O)[C@H]2CCCC[C@@H]2CCO)cc1OC	> 100 µM	> 100 µM	> 100 µM	> 100 µM		> 100 µM	> 100 µM	> 100 µM	> 100 µM	> 100 µM	> 100 µM
N#Cc1sc2c(c1O)c(=O)n(-c1ccccc1)c(=S)n2-c1ccccc1	> 100 µM	> 100 µM	> 100 µM	> 100 µM	> 100 µM			> 100 µM		> 100 µM	> 100 µM
C[N+](C)=c1nc(N2CCc3ccccc3C2)ss1	> 100 µM	> 100 µM	> 100 µM			> 100 µM		> 100 µM	> 100 µM	> 100 µM	> 100 µM
O=C1Oc2cc3c(c4cccc1c24)O[C@H](c1ccccc1)[C@@H](c1ccccc1)[C@@H]3c1ccc(Cl)cc1		> 100 µM	> 100 µM	> 100 µM	> 100 µM	64.3 µM	> 100 µM	> 100 µM	> 100 µM	> 100 µM	> 100 µM
CCc1cc2c(oc3cc(C)ccc32)c(=O)n1C	> 10 µM	> 10 µM		> 10 µM	> 10 µM	> 10 µM	> 10 µM		> 10 µM		
NCc1cc(O)c(O)c(O)c1	> 100 µM	> 100 µM	> 100 µM	> 100 µM	> 100 µM	> 100 µM		> 100 µM		> 100 µM	> 100 µM
CN(C)Cc1cc(N=Nc2ccc(Cl)cc2)ccc1OC(=O)c1ccccc1	13.6 µM	28.7 µM	40.8 µM	27.5 µM	27.6 µM	26.1 µM	29 µM	40.7 µM	34.5 µM	28.8 µM	
O=C(NNC(=O)c1ccccc1O)c1ccc(O)cc1	> 100 µM		> 100 µM	> 100 µM	> 100 µM	> 100 µM	> 100 µM	> 100 µM	> 100 µM	> 100 µM	> 100 µM
